In publication PMC11003479, “Inhibition of pathogenic bacterial carbonic anhydrases by monothiocarbamates” (Journal of Enzyme Inhibition and Medicinal Chemistry, 2023):

Each compound was assayed against T1, α-EfCA (Enterococcus faecium, UniProt Q3XYE8) (assay: stopped-flow CO2 hydrase assay). Settings: not given.
T1 construct: gene HMPREF0351_11360
T1 sequence (Q3XYE8 1-234): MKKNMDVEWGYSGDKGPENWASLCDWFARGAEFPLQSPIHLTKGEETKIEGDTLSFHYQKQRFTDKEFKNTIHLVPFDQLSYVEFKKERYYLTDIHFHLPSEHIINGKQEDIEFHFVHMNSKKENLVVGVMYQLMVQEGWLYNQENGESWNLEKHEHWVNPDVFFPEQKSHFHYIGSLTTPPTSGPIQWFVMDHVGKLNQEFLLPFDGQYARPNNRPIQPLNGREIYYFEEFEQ
Assay type: biochemical

Point of comparison: `O=C(S)N1CCN(c2ccc(C(F)(F)F)cc2)CC1` [compound 13, MTC 13], Ki 0.477 µM. Against it:
- O=C(S)N1CCN(c2cccc(Cl)c2)CC1 [compound 15, MTC 15] — 1.6-fold lower, 0.3 µM
- O=C(S)N1CCN(c2ccc(F)cc2)CC1 [compound 14, MTC 14] — 2.4-fold lower, 0.195 µM
- O=C(CN1CCN(C(=O)S)CC1)NC1CCCCC1 [compound 5, MTC 5] — 1.6-fold lower, 0.29 µM
- COc1ccc(CCNC(=O)S)cc1OC [compound 12, MTC 12] — within 1.5-fold, 0.357 µM
- O=C(S)NCCc1ccccc1 [compound 9, MTC 9] — within 1.5-fold, 0.428 µM

The compounds below were run against T2, α-NgCA (Neisseria gonorrhoeae, UniProt Q50940) (assay: stopped-flow CO2 hydrase assay). Settings: not given.
T2 construct: gene cah
T2 sequence (Q50940 27-252): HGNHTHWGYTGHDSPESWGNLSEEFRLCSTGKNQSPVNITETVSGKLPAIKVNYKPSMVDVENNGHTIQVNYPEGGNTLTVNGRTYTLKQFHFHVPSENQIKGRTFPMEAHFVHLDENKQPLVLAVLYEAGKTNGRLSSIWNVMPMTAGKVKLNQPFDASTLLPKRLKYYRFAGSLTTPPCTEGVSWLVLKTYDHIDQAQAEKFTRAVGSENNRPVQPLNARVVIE
Assay type: biochemical

Point of comparison: `COc1ccc(CCNC(=O)S)cc1OC` [compound 12, MTC 12], Ki 0.512 µM. Against it:
- O=C(S)N1CCN(c2cccc(Cl)c2)CC1 [compound 15, MTC 15] — within 1.5-fold, 0.367 µM
- O=C(S)N1CCN(c2ccc(F)cc2)CC1 [compound 14, MTC 14] — within 1.5-fold, 0.417 µM
- O=C(CN1CCN(C(=O)S)CC1)NC1CCCCC1 [compound 5, MTC 5] — within 1.5-fold, 0.395 µM
- O=C(S)N1CCN(c2ccc(C(F)(F)F)cc2)CC1 [compound 13, MTC 13] — within 1.5-fold, 0.394 µM

What follows are compounds tested against T1, α-EfCA (assay: biochemical). Settings: not given.
Parameters: stopped-flow CO2 hydration assay of recombinant carbonic anhydrases, pH 7.4 (alpha) or 8.3 (gamma), KI
Experimental: (§1) The experiments were performed at the pH of 7.4 for the α-class enzymes, and the pH of 8.3 for the γ-CA, as reported earlier[15]^,[16]. The bacterial enzymes were recombinant proteins obtained as reported earlier by our group[15]^,[16].

Point of comparison: `CC(C)CN(CC(C)C)C(=O)S` [compound 2], Ki 665 nM. Against it:
- CN(Cc1ccccc1)C(=O)S [compound 8] — within 1.5-fold, 686 nM
- CN1CCN(C(=O)S)CC1 [compound 6] — within 1.5-fold, 959 nM
- CCCN(CCC)C(=O)S [compound 4] — within 1.5-fold, 550 nM
- CCCCN(CC)C(=O)S [compound 10] — within 1.5-fold, 806 nM
- CCOC(=O)CN(C)C(=O)S [compound 7] — within 1.5-fold, 788 nM
- CCCCN(CCCC)C(=O)S [compound 3] — within 1.5-fold, 517 nM
- O=C(S)N1CCOCC1 [compound 1] — within 1.5-fold, 740 nM
- O=C(S)N1CCN(C(=O)S)CC1 [compound 11] — within 1.5-fold, 915 nM

What follows are compounds tested against T2, α-NgCA (assay: biochemical). Settings: not given.
Parameters: stopped-flow CO2 hydration assay of recombinant carbonic anhydrases, pH 7.4 (alpha) or 8.3 (gamma), KI
Experimental: as §1

Point of comparison: `CN(Cc1ccccc1)C(=O)S` [compound 8], Ki 843 nM. Against it:
- CN1CCN(C(=O)S)CC1 [compound 6] — within 1.5-fold, 729 nM
- CCCN(CCC)C(=O)S [compound 4] — within 1.5-fold, 799 nM
- CCCCN(CC)C(=O)S [compound 10] — within 1.5-fold, 766 nM
- CCOC(=O)CN(C)C(=O)S [compound 7] — within 1.5-fold, 919 nM
- CCCCN(CCCC)C(=O)S [compound 3] — within 1.5-fold, 825 nM
- O=C(S)NCCc1ccccc1 [compound 9] — within 1.5-fold, 648 nM
- CC(C)CN(CC(C)C)C(=O)S [compound 2] — within 1.5-fold, 890 nM
- O=C(S)N1CCOCC1 [compound 1] — within 1.5-fold, 761 nM
- O=C(S)N1CCN(C(=O)S)CC1 [compound 11] — within 1.5-fold, 630 nM

What follows are compounds tested against γ-EfCA (assay: stopped-flow CO2 hydrase assay). Settings: CO2 hydration, pH 8.3.
Assay type: biochemical, Enterococcus faecium

Point of comparison: `CCOC(=O)CN(C)C(=O)S` [compound 7, MTC 7], Ki 0.279 µM. Against it:
- O=C(S)N1CCN(c2cccc(Cl)c2)CC1 [compound 15, MTC 15] — within 1.5-fold, 0.214 µM
- O=C(S)N1CCN(c2ccc(F)cc2)CC1 [compound 14, MTC 14] — 1.9-fold lower, 0.149 µM
- O=C(CN1CCN(C(=O)S)CC1)NC1CCCCC1 [compound 5, MTC 5] — within 1.5-fold, 0.417 µM
- COc1ccc(CCNC(=O)S)cc1OC [compound 12, MTC 12] — within 1.5-fold, 0.358 µM
- O=C(S)N1CCN(c2ccc(C(F)(F)F)cc2)CC1 [compound 13, MTC 13] — within 1.5-fold, 0.334 µM
